Experimental data reported in patent US8835425B2, “Use of selective GABA A α5 negative allosteric modulators for the treatment of central nervous system conditions” (Hoffmann-La Roche Inc., priority 2010, dated 2014).
Like-named read-outs stand apart in the source and are kept apart here.

Legend:
human GABA A α1β2/3γ2 [1] = target: T1, human GABA A α1β2/3γ2 (Homo sapiens, UniProt P14867+P18507); experiment: [3H]flumazenil competition binding, HEK293 cells expressing human α1β2/3γ2; set-up: expressed in transfected cells; host or cells: HEK293; settings: for hKi α1/hKi α5: binding selectivity ratio
human GABA A α2β3γ2 [2] = target: T2, human GABA A α2β3γ2 (Homo sapiens, UniProt P18507+P47869); experiment: [3H]flumazenil competition binding, HEK293 cells expressing human α2β3γ2; set-up: expressed in transfected cells; host or cells: HEK293; settings: for hKi α2/hKi α5: binding selectivity ratio
human GABA A α3β3γ2 [3] = target: T3, human GABA A α3β3γ2 (Homo sapiens, UniProt P18507+P34903); experiment: [3H]flumazenil competition binding, HEK293 cells expressing human α3β3γ2; set-up: expressed in transfected cells; host or cells: HEK293; settings: for hKi α3/hKi α5: binding selectivity ratio
human GABA A α5β3γ2 [4] = target: T4, human GABA A α5β3γ2 (Homo sapiens, UniProt P18507+P31644); experiment: Two-microelectrode voltage clamp, modulation of GABA EC10 response in Xenopus oocytes, α5β3γ2; format: cell-based; set-up: expressed in transfected cells; host or cells: Xenopus laevis oocytes; settings: % change of submaximal (EC10) response to GABA at 30×Ki
Protocol: (§1) Table 2b. […] Effect at human GABA A α5 receptors: % change of a submaximal (EC10) response to GABA determined at 30×Ki value from the flumazenil binding assay.
(§2) Subtype-selective effects were determined on cloned receptors expressed in Xenopus oocytes. Human recombinant GABA A receptors were expressed in Xenopus laevis oocytes. Current responses were evoked in two-microelectrode voltage-clamp condition by applying an EC10 of GABA before and during the co-application of the test compound. Response amplitudes in the presence of the test compound are expressed as percentage of the amplitudes before drug addition.

human GABA A α1β2/3γ2 [5] = target: T1, human GABA A α1β2/3γ2; experiment: Two-microelectrode voltage clamp, modulation of GABA EC10 response in Xenopus oocytes, α1β2/3γ2; format: cell-based; set-up: expressed in transfected cells; host or cells: Xenopus laevis oocytes; settings: % change of EC10 GABA response at 3 μM or at 30×Ki if Ki below 0.1 μM
human GABA A α5β3γ2 [6] = target: T4, human GABA A α5β3γ2; experiment: [3H]flumazenil competition binding, HEK293 cells expressing human α5β3γ2; set-up: expressed in transfected cells; host or cells: HEK293
human GABA A α2β3γ2 [7] = target: T2, human GABA A α2β3γ2; experiment: Two-microelectrode voltage clamp, modulation of GABA EC10 response in Xenopus oocytes, α2β3γ2; format: cell-based; set-up: expressed in transfected cells; host or cells: Xenopus laevis oocytes; settings: % change of EC10 GABA response at 3 μM or at 30×Ki if Ki below 0.1 μM
Protocol: as §1, §2

human GABA A α3β3γ2 [8] = target: T3, human GABA A α3β3γ2; experiment: Two-microelectrode voltage clamp, modulation of GABA EC10 response in Xenopus oocytes, α3β3γ2; format: cell-based; set-up: expressed in transfected cells; host or cells: Xenopus laevis oocytes; settings: % change of EC10 GABA response at 3 μM or at 30×Ki if Ki below 0.1 μM
Protocol: as §1, §2

[9] = [3H]flumazenil competition, human α1β2/3γ2, read-out: hKi α1
[10] = [3H]flumazenil competition, human α2β3γ2, read-out: hKi α2
[11] = [3H]flumazenil competition, human α3β3γ2, read-out: hKi α3
[12] = [3H]flumazenil competition, human α5β3γ2, read-out: hKi α5

Compound | Ki (human GABA A α1β2/3γ2 [1]) [nM] | hKi α1/hKi α5 (human GABA A α1β2/3γ2 [1]) | hKi α2/hKi α5 (human GABA A α2β3γ2 [2]) | hKi α3/hKi α5 (human GABA A α3β3γ2 [3]) | Efficacy GABA A α5β3γ2 (human GABA A α5β3γ2 [4]) [%] | Ki (human GABA A α1β2/3γ2 [1]; [9]) [nM] | Efficacy GABA A α1β2/3γ2 (human GABA A α1β2/3γ2 [5]) | Ki (human GABA A α5β3γ2 [6]) [nM] | Ki (human GABA A α2β3γ2 [2]) [nM] | Ki (human GABA A α3β3γ2 [3]) [nM] | Efficacy GABA A α2β3γ2 (human GABA A α2β3γ2 [7]) | Efficacy GABA A α3β3γ2 (human GABA A α3β3γ2 [8]) | Ki (human GABA A α2β3γ2 [2]; [10]) [nM] | Ki (human GABA A α3β3γ2 [3]; [11]) [nM] | Ki (human GABA A α5β3γ2 [6]; [12]) [nM]
FCc1ncn2c1Cn1ncnc1-c1cc(F)ccc1-2 [Compound 8580, 3-Fluoro-10-fluoromethyl-9H-imidazo[1,5-a][1,2,4]triazolo[1,5-d][1,4]benzodiazepine] | 43.9 | 5 | 3 | 3 | −35 | – | – | – | – | – | – | – | – | – | –
N#Cc1ccc2c(c1)-c1ncnn1Cc1c(C(F)F)ncn1-2 [Compound 8582, 3-Cyano-10-difluoromethyl-9H-imidazo[1,5-a][1,2,4]triazolo[1,5-d][1,4]benzodiazepine] | – | 16 | 15 | 6 | −37 | 256 | −21% | – | – | – | – | – | – | – | –
FC(F)c1ncn2c1Cn1ncnc1-c1ccccc1-2 [Compound 8583, 10-Difluoromethyl-9H-imidazo[1,5-a][1,2,4]triazolo[1,5-d][1,4]benzodiazepine] | – | 18 | 9 | 7 | – | – | – | – | – | – | – | – | – | – | –
Cc1nc2n(n1)Cc1c(CF)ncn1-c1ccc(Cl)cc1-2 [Compound 8584, 3-Chloro-10-fluoromethyl-6-methyl-9H-imidazo[1,5-a][1,2,4]triazolo[1,5-d][1,4]benzodiazepine] | – | 50 | 72 | 47 | – | 125 | – | – | – | – | – | – | – | – | –
Clc1ncn2c1Cn1ncnc1-c1ccccc1-2 [Compound 8585, 10-Chloro-9H-imidazo[1,5-a][1,2,4]triazolo[1,5-d][1,4]benzodiazepine] | – | 14 | 5 | 2 | −41 | – | −37% | – | – | – | – | – | – | – | –
Clc1ccc2c(c1)-c1ncnn1Cc1c(Cl)ncn1-2 [Compound 8586, 3,10-Dichloro-9H-imidazo[1,5-a][1,2,4]triazolo[1,5-d][1,4]benzodiazepine] | 15.3 | 7 | 12 | 7 | −33 | – | −5% | 2.1 | 23.7 | 14 | +2% | +7% | – | – | –
Cc1nc2n(n1)Cc1c(Cl)ncn1-c1ccc(C#N)cc1-2 [Compound 8587, 10-Chloro-3-cyano-6-methyl-9H-imidazo[1,5-a][1,2,4]triazolo[1,5-d][1,4]benzodiazepine] | – | 23 | 13 | 10 | −42 | 250 | −28% | 10.9 | – | – | – | – | 141 | 106 | –
FC(F)c1ccc2c(c1)-c1ncnn1Cc1c(Cl)ncn1-2 [Compound 8588, 10-Chloro-3-difluoromethyl-9H-imidazo[1,5-a][1,2,4]triazolo[1,5-d][1,4]benzodiazepine] | – | 19 | 37 | 15 | – | – | – | – | – | – | – | – | – | – | –
Cc1nc2n(n1)Cc1c(Cl)ncn1-c1ccc(Br)cc1-2 [Compound 8589, 3-Bromo-10-chloro-6-methyl-9H-imidazo[1,5-a][1,2,4]triazolo[1,5-d][1,4]benzodiazepine] | 226 | 37 | 37 | 35 | – | – | – | 6.1 | 229 | 216 | – | – | – | – | –
Fc1ccc2c(c1)-c1ncnn1Cc1c(Br)ncn1-2 [Compound 8590, 10-Bromo-3-fluoro-9H-imidazo[1,5-a][1,2,4]triazolo[1,5-d][1,4]benzodiazepine] | – | 4 | 7 | 8 | – | – | – | – | – | – | – | – | – | – | –
Cc1ncn2c1Cn1nc(CN3CCCC3=O)nc1-c1cc(Br)ccc1-2 [Compound 8591, 3-Bromo-10-methyl-6-(2-oxo-pyrrolidin-1-ylmethyl)-9H-imidazo[1,5-a][1,2,4]triazolo[1,5-d][1,4]benzodiazepine] | – | 88 | 94 | 73 | −31 | 624 | +4% | 7.1 | – | – | −7% | +23% | 669 | 515 | –
Cc1onc(-c2ccccc2)c1COc1ccc(C(=O)NC(C)C)cn1 [Compound O1, N-Isopropyl-6-(5-methyl-3-phenyl-isoxazol-4-ylmethoxy)-nicotinamide] | – | 388 | 77 | 85 | −50 | 504 | −19% | – | – | – | −34% | −43% | 101 | 110 | 1.3
Cc1onc(-c2ccccc2)c1COc1ccc(C(=O)N2CCn3cnnc3C2)cn1 [Compound P1, (5,6-Dihydro-8H-[1,2,4]triazolo[4,3-a]pyrazin-7-yl)-[6-(5-methyl-3-phenyl-isoxazol-4-ylmethoxy)-pyridin-3-yl]-methanone] | – | – | – | – | – | – | – | – | – | – | – | – | – | – | 29.9
Cc1onc(-c2ccccc2)c1COc1ccc(C(=O)N2CC3(COC3)C2)cn1 [Compound Q1, [6-(5-Methyl-3-phenyl-isoxazol-4-ylmethoxy)-pyridin-3-yl]-(2-oxa-6-aza-spiro[3.3]hept-6-yl)-methanone] | – | 42 | 29 | 26 | −35 | 633 | −11% | – | – | – | −18% | −17% | 438 | 400 | 15.1
Cc1onc(-c2ccc(Cl)cc2)c1COc1ccc(C(=O)N2CCOCC2)cn1 [Compound S1, {6-[3-(4-Chloro-phenyl)-5-methyl-isoxazol-4-ylmethoxy]-pyridin-3-yl}-morpholin-4-yl-methanone] | – | 102 | 39 | 41 | – | 551 | – | – | – | – | – | – | 209 | 220 | 5.4
Cc1onc(-c2ccc(F)cn2)c1COc1ccc(C(=O)NC(C)C)cn1 [Compound U1] | – | – | – | – | −33 | – | −15% | – | – | – | −34% | −21% | – | – | –
Cc1onc(-c2ccc(Cl)cn2)c1COc1ccc(C(=O)N2CCSCC2)cn1 [Compound W1, {6-[3-(5-Chloro-pyridin-2-yl)-5-methyl-isoxazol-4-ylmethoxy]-pyridin-3-yl}-thiomorpholin-4-yl-methanone] | – | 87 | 27 | 44 | – | 34.6 | – | – | – | – | – | – | 10.7 | 17.7 | 0.4
